# Patent US7078169B2 (priority 1999, dated 2006)
# Tests used:
# yjl105w mutant strain = test: Lovastatin drug disk on yeast lawn, yjl105w mutant vs wild-type; type: cell-based, S. cerevisiae; conditions: 250 μg on sterile disk, 5×10^6 cells, overnight at 30° C.
# Procedure: FIG. 4. Effects of lovastatin on wild-type and YJL105w knockout yeast strains. 10 μl of a 25 mg/ml solution of lovastatin (250 μg) in ethanol was applied to a sterile drug disk on a lawn of yeast (5×10^6 cells, ABY363). The plates were incubated overnight at 30° C.
# To test whether YJL105w has a role in isoprenoid metabolism, a yjl105w mutant where the entire ORF was replaced with the kanamycin resistance gene was constructed. Approximately 5×10^6 cells of the yjl105w mutant strain and a wild-type control strain (ABY363, MATα his3Δ1 leu2Δ0 lys2Δ0 ura3Δ0) were plated onto separate non-selective agar plates. The sterol biosynthetic inhibitor lovastatin (250 μg) was applied to a sterile disk on each lawn and the cells were allowed to grow overnight at 30° C.
# HES1 reporter gene = type: cell-based, S. cerevisiae; conditions: ABY140 (pdr5::KanMX yor1::KanMX) vs ABY11 wild-type
# Procedure: To further test the viability of this indicator gene in a high-throughput screen, the regulation of the HES1 reporter was tested in two different strain backgrounds ABY11 (MATa leu2Δ1 ura3-52) is a wild-type strain.
# The ABY140 [HES1] strain was used to screen approximately 16,800 chemicals from a combinatorial chemistry library. […] Twenty-four of these chemical were further tested in a secondary screen for the ability to induce four additional indicator (also referred to as reporter) genes whose expression are also coordinately regulated with genes encoding ergosterol biosynthetic enzymes.
# HES1 reporter = conditions: 384-well array, various concentrations, 30° C., 24 hrs
# Procedure: Cells were grown to mid-log phase at 30° C. in casamino acids medium (0 67% yeast nitrogen base, 2% glucose, 2% casamino acids). Cell density was adjusted prior to incubation in various concentrations of drug Arrays were incubated at 30° C. for 24 hrs prior to imaging.
smiles,measurement,setting,value
CC[C@H](C)C(=O)O[C@H]1C[C@@H](C)C=C2C=C[C@H](C)[C@H](CC[C@@H]3C[C@@H](O)CC(=O)O3)[C@H]21 [lovastatin],resistance of yjl105w mutant strain to treatment relative to wild-type control (ABY363),yjl105w mutant strain,significantly more resistant
Nc1[nH]c(=O)ncc1F [Flucytosine],sensitivity of HES1 reporter gene induction in ABY140 compared to ABY11,HES1 reporter gene,not
Clc1ccc(COC(Cn2ccnc2)c2ccc(Cl)cc2Cl)cc1 (stereo not shown) [Econazole],sensitivity of HES1 reporter gene induction in ABY140 compared to ABY11,HES1 reporter gene,more sensitive
same,induction of the HES1 reporter,HES1 reporter,specifically induced
